Here are results for one molecule from US20210267978A1, “NANOPARTICLE FORMULATIONS OF IKE AND METHODS OF USE THEREOF” (The Trustees of Columbia University in the City of New York, priority 2018, published 2021).

Read-outs that look alike come from different tables or passages of the source.

One series has as its system SUDHL6 cells. Nature of the series: Reduced glutathione measurement in cell culture (Fluorometric-Green). The note with it: Homo sapiens, SU-DHL-6, 24 hours, average of three experiments, read-out: IC50 of GSH depletion. Format: cell-based. Here is the method:
2.4 million cells were incubated with DMSO, IKE, or β-mercaptoethanol (β-Me) at a density of 0.2 million cells/mL for 24 h. Cells were collected and washed with cold PBS once. Cell number was counted by Vi-Cell. Cells were resuspended in ice cold RIPA buffer (Thermo Fisher Scientific, 89900) with 100 μL/one million cells. Samples were centrifuged for 15 min at 4° C. at 17,000×g. The resulting supernatant was deproteinized using a trichloroacetic acid and sodium bicarbonate solution and kept on ice. The sample was diluted with assay buffer provided in GSH/GSSG Ratio Detection Assay Kit (Abcam, ab13881) ten-fold. Reduced glutathione (GSH) levels were determined using Fluorometric-Green provided in the kit following the manufacture's protocol. 384-well (Corning) low volume black flat bottom polystyrene non-treated microplates 1230F99 were used in this experiment.

For the next series, the system named is some cell lines. Particulars: cited from earlier work.
Series [1] in a line: Pharmacokinetic analysis in NCG mice bearing SUDHL6 xenografts (plasma and tumor, LC-MS). Format: in vivo. The note with it: SUDHL6-xenograft NCG mice; for AUC(0-t) / Cmax / Tmax / half-life / concentration at 24 h: mouse; for AUC(0-t) / Cmax / Tmax / half-life / concentration at 24 h / Tlast: single dose 50 mg/kg IP; for concentration at 24 h: read-out: Clast. As to the method:
IKE was dissolved in 5% DMSO/95% HBSS at pH 4 to create a 5 mg/mL solution or 3 mg/mL solution. 5% DMSO/95% HBSS at pH 4 was used as vehicle 1. IKE PEG-PLGA nanoparticles and unfunctionalized PEG-PLGA nanoparticles (without IKE) (vehicle 2) prepared with a NanoAssemblr were dialyzed with deionized water overnight, and the water was changed at least twice. Dialyzed IKE-PEG-PLGA nanoparticles and unfunctionalized PEG-PLGA nanoparticles were concentrated by Amicon Ultra-15 Centrifugal Filter Units to create a solution with 80 mg/mL PEG-PLGA nanoparticles. All above solutions were sterilized by filtering through a 0.2 μm syringe filter.
NCG mice 6-weeks of age were injected with 10 million SUDHL-6 cells subcutaneously. Visible tumors appeared after 2 weeks. Tumor size was measured by electronic caliper every 2 days and calculated using the formula: 0.5×length×width^2. After another 2 weeks, mice were randomly separated into group of 3 mice per cage with roughly tumor size (1200 mm^3). Mice were dosed at 50 mg/kg IKE, 22 mg/kg IKE, 22 mg/kg IKE PEG-PLGA nanoparticles (equal to 600 mg/kg PEG-PLGA) using IP at one time and samples were collected at 0, 1, 2, 3, 4, 6, and 24 h with three mice per time point. Mice were dosed with Vehicle 1 and Vehicle 2 (600 mg/kg PEG-PLGA) by IP and samples were collected at 24 h. Mice were euthanized using a CO2 gas chamber before xenograft dissection and cardio puncture. Plasma samples were collected and analyzed as described above. Tumors were dissected and divided into 6 segments, frozen on dry ice, and stored at −80° C. Before IKE extraction, tumor tissue samples were thawed at room temperature and weighed. A 2.5-fold ratio of volume of phosphate-buffered saline (PBS) (mL/g) was added to the sample and homogenized using Bead Ruptor 4 at speed 4 for 30 sec. The homogenization step was repeated until the samples were homogenized well (final weight/volume was 0.4 g/mL). 100 μL of homogenized tissue (equal to 40 mg) was added to a new microfuge tube, 900 μL of acetonitrile was added. The samples were mixed for at least 5 minutes by rotating on a shaker and were sonicated for at least 30 sec prior to centrifugation for 10 min at 4,000×g and 4° C. The supernatant was removed and dried on the GeneVac overnight on the HPLC setting. After drying, the samples were resuspended in 100 μL of methanol and analyzed on the LC-MS with each sample analyzed twice. Technical replicates were averaged. The concentration of IKE in the sample was determined by comparison against a standard curve of IKE in the range of 25 to 2,500 ng/mL. Pharmacodynamic analysis of ferroptosis biomarkers is described in the RT-qPCR, glutathione, immunofluorescence, and lipidomics sections below. Pharmacokinetics parameters of IKE were assessed using Prism fitted with Lognormal of one phase exponential decay.

Series [2] has as its system SUDHL6 xenograft tumor tissue. The experiment in a line: TBARS measurement in mouse tumor tissue from efficacy study. In kind it is in vivo, NCG mice. Here is the method: NCG mice, 6-weeks old, were injected with 10 million SUDHLO-6 cells subcutaneously. The mice were treated after the tumor size reached 100 mm^3. Mice were separated randomly into treatment groups and dosed with 23 mg/kg IKE, 40 mg/kg IKE, 23 mg/kg IKE PEG-PLGA nanoparticles (equal to 700 mg/kg PEG-PLGA), vehicle 1 (based on volume), and vehicle 2 (700 mg/kg PEG-PLGA) once daily by IP for 14 days. Tumor volume was measured daily with electronic caliper and calculated using the formula: 0.5×length×width^2. 3 h after the final dosage, mice were euthanized with CO2 and tumor tissue was dissected, weighed, divided into 4-6 segments, frozen, and stored at −80° C. Tumor volume change was analyzed in Prism using one-way ANOVA. Tumor tissues were analyzed as described in the RT-qPCR, immunofluorescence, TBARS, and lipidomics sections below.
10-25 mg tumor tissue was placed into a 1.5 mL Eppendorf microfuge tube, and the sample was placed on dry ice until use. 20 μL/mg ice cold RIPA buffer with cocktail protease inhibitor (Roche) was added. The tumor tissue was homogenized at speed 5 for 30 sec using Bead Ruptor 4. The sample was centrifuged at 4° C. at 1,600×g for 10 min. The sample was kept on ice and the supernatant used for analysis. […] TBARS was measured using a TBARS Assay Kit (Cayman 700870) following the manufacture's protocol.

Take `CC(C)Oc1ccc(C(=O)Cn2ccnc2)cc1-n1c(CN2CCN(C(=O)COc3ccc(Cl)cc3)CC2)nc2ccccc2c1=O` [IKE, Imidazole ketone erastin]: the IC50 in the series on SUDHL6 cells amounted to 34 nM. In addition, the “potency improvement compared with erastin” value with some cell lines is listed as over 100 ×. Also, in series [1] (single dose 50 mg/kg i.p.), the highest plasma concentration turned out to be 5.2 µg/mL and the highest tumor accumulation was found to be 2.5 µg/mL. Moreover, in series [1] (plasma), the AUC(0-t) stood at 10900 ng·h/mL, the concentration peaked (Cmax) at 5180 ng/mL, the Tmax amounted to 1.35 h and the half-life was 1.83 h. In addition, in series [1] (plasma), the concentration at 24 h came out at 30 ng/mL and the Tlast turned out to be 24 h. In addition, in series [1] (tumor tissue), the AUC(0-t) is 9860 ng·h/mL, the Cmax was 2520 ng/mL, the time of peak concentration (Tmax) turned out to be 3.3 h and the half-life is 3.5 h. In series [1] (tumor tissue), the concentration at 24 h was found to be 283 ng/mL and the Tlast turned out to be 24 h. For the same molecule, the “MDA increase (TBARS assay, MDA-TBA adducts' fluorescence)” value in series [2] (23 mg/kg daily for 14 days) is given as 1.4 fold. Also, the “MDA increase (TBARS assay, MDA-TBA adducts' fluorescence)” value in series [2] (40 mg/kg daily for 14 days) is 1.8 fold.

In general, IC50 refers to the point on the concentration scale where inhibition reaches its midpoint. As a reminder, the AUC(0-t) is exposure summed from dosing to a finite time, without extrapolation to infinity. A lower AUC(0-t) goes with low exposure. Usually Cmax stands for the peak of the concentration-time curve. In general, Tmax refers to the time from dosing to the highest level. In general, half-life refers to the time needed for the level to fall by half in the phase considered. The low end stands for rapid decline, the high end for slow decline.
